For orientation: GI50 means the concentration at which growth is held to half of that of the control.

Among the test systems are SK-OV-3; OVCAR-5; LOX IMVI; UO-31; HT-29; T47D; HOP-92; HOP-62; EKVX; SF-539; RXF 393; SN12C; MOLT-4; SR; NCI-H226; A498; SK-MEL-2; K562; MDA-MB-231; KM12.
Common to all, as to assay: DTP human tumour cell line panel, 48 h

Molecules are shown by their SMILES.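 Values below derive from 48-hour exposures of cells grown in 96-well plates, with endpoints linearly interpolated between the two concentrations bracketing the appropriate inhibition level. At the GI50, growth is halved.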 Activity calls are given as the source filed them. Cut-off read from the data, not from the text of the source: active = GI50 up to about 1.1 µM and inactive = higher.

As to `COC(=O)/C=C1\C(=O)C=C2[C@@H]3C[C@H]4C[C@H](CC[C@@]4(C)N21)C3(C)NC(C)=O` (stereo not given in full), the GI50 in the assay on SK-OV-3 was 24.2 µM (inactive); with OVCAR-5, 18.1 µM (inactive); in the assay on LOX IMVI it was 17 µM (inactive); in the assay on UO-31, 19.5 µM (inactive); in the assay on HT-29 it was 8.02 µM (inactive); in the assay on T47D it was 7.23 µM (inactive). For the same compound, the GI50 is 18 µM (inactive) in the assay with HOP-92; 20.7 µM (inactive) in the assay with HOP-62; 11.4 µM (inactive) with EKVX; 3.33 µM (inactive) in the assay on SF-539; 4.51 µM (inactive) in the assay with RXF 393; 11.7 µM (inactive) in the assay with SN12C. The GI50 in the assay with MOLT-4 is 3.33 µM (inactive); in the assay on SR, 18.8 µM (inactive); with NCI-H226, 25.5 µM (inactive); with A498 it was 19 µM (inactive); with SK-MEL-2, 18.4 µM (inactive); with K562, 7.66 µM (inactive). The GI50 in the assay with MDA-MB-231 was 26 µM (inactive); in the assay on KM12, 16 µM (inactive).
With `C[C@H]1[C@H](C)N1CC(O)Cn1ccnc1[N+](=O)[O-]` (stereo not given in full), the GI50 in the assay with SK-OV-3, in the assay with OVCAR-5, in the assay with LOX IMVI, in the assay on UO-31, with HT-29 and with T47D was > 100 µM (inactive) each time. The concentration for 50% growth inhibition (GI50) with HOP-92 is 1 µM (active); in the assay with HOP-62, > 100 µM (inactive); with EKVX it was > 100 µM (inactive); with SF-539 it was > 100 µM (inactive); with RXF 393 it was > 100 µM (inactive); with SN12C, > 100 µM (inactive). The GI50 is > 67.6 µM (inactive) in the assay on MOLT-4; > 100 µM (inactive) in the assay on SR; > 100 µM (inactive) in the assay on NCI-H226; > 100 µM (inactive) in the assay on A498; > 100 µM (inactive) in the assay with SK-MEL-2; > 100 µM (inactive) in the assay with K562. Also, the GI50 in the assay with MDA-MB-231 and with KM12 was > 100 µM (inactive) each time.
Take `Cc1nn(C(=O)c2ccccc2O)c2c1C(c1ccco1)SC(=N)N2` (stereo not given): the GI50 in the assay with SK-OV-3 was 3.3 µM (inactive); in the assay on OVCAR-5, > 10 µM (inactive); with LOX IMVI it was 3.73 µM (inactive); in the assay on UO-31, 5.6 µM (inactive); in the assay on HT-29, > 10 µM (inactive); in the assay with T47D it was 4.83 µM (inactive). For the same compound, the GI50 in the assay on HOP-92 was 4.59 µM (inactive); in the assay with HOP-62, 2.58 µM (inactive); in the assay on EKVX it was > 10 µM (inactive); in the assay with SF-539, 4.28 µM (inactive); in the assay on RXF 393 it was 7.1 µM (inactive); in the assay on SN12C it was 5.93 µM (inactive). For the same compound, the GI50 in the assay with MOLT-4 was 3.61 µM (inactive); in the assay on SR, 4.9 µM (inactive); with NCI-H226, 3.43 µM (inactive); in the assay on A498 it was 6.07 µM (inactive); with SK-MEL-2 it was > 10 µM (inactive); in the assay with K562 it was 2.93 µM (inactive). The GI50 in the assay on MDA-MB-231 is 5.79 µM (inactive); with KM12, 5.47 µM (inactive).
On to `COC(=O)N1CC[C@@H]2CCC=C(c3cccc4c3OCO4)[C@@H]21`, for which the GI50 in the assay on SK-OV-3 was > 100 µM (inactive); with OVCAR-5, > 100 µM (inactive); with LOX IMVI it was > 100 µM (inactive); in the assay on UO-31, 40.7 µM (inactive); in the assay with HT-29, 79.6 µM (inactive); with T47D, 32.1 µM (inactive). For the same compound, the GI50 in the assay on HOP-92 was 22 µM (inactive); with HOP-62, > 100 µM (inactive); in the assay with EKVX it was 79.4 µM (inactive); with SF-539, > 100 µM (inactive); in the assay on RXF 393, > 100 µM (inactive); in the assay on SN12C, > 100 µM (inactive). Moreover, the GI50 in the assay on MOLT-4 was 26.1 µM (inactive); in the assay with SR it was > 100 µM (inactive); in the assay on NCI-H226, > 100 µM (inactive); in the assay on A498, > 100 µM (inactive); in the assay on SK-MEL-2 it was > 100 µM (inactive); in the assay on K562, 42.8 µM (inactive). Moreover, the GI50 with MDA-MB-231 and in the assay with KM12 was > 100 µM (inactive) in each case.

Values taken from ChEMBL document CHEMBL1201862, “PubChem BioAssay data set” (2004).
